The test system of series [1] is T1, LXR.
T1 construct: EC50 (M); S/N; other: differentiate
The series is described as follows: Cell-based LXR luciferase reporter assay, LXR agonists (Example 16a). Conditions: Table 5a; for EC50: differentiated THP-1/LXR-Luc cells, 48 h; for S/N: highest RLU on dose response curve / RLU in untreated wells. Further details: species or system human. Here is the method: LXR agonists described herein were evaluated in a cell-based LXR responsive luciferase reporter assay. To generate the assay cell line, an LXR regulated luciferase reporter gene [Cignal Lenti LXR Reporter (luc) kit (Qiagen, Cat #CLS-001L)] was transduced into THP1 cells and the cells were selected for two weeks in puromycin. The lentivirus expresses the firefly luciferase gene under the control of a basal promoter and tandem repeats of the LXR transcriptional response element. The resulting cell line is referred to as THP1/LXR-Luc cells. For the assay, THP1/LXR-Luc cells were seeded onto 96-well plates at 40,000 cells/well in media containing RPMI supplemented with 10% FBS and penicillin/streptomycin and were then differentiated with 200 nM Phorbol Myristate Acetate (PMA) for 3 days. The media was subsequently removed and replaced with 80 μL of fresh media without PMA. Three-fold serial dilutions of free payloads were prepared in 100% DMSO, transferred to fresh growth media, and 20 μL were added to the cells at a final constant DMSO concentration of 0.2% and free payloads at final concentrations ranging from 100 nM to 0.015 nM. The last well in the plate served as blank control containing only the media and 0.2% DMSO (untreated well) and was plotted as a continuation of the 3-fold serial dilution. Forty-eight hours later, luciferase activity was determined after the addition of One-Glo™ reagent (Promega, Cat #E6130) to each well. Relative light units (RLUs) were measured on an Envision luminometer (PerkinElmer) and EC50 values were determined using a four-parameter logistic equation over a 10-point dose response curve (GraphPad Prism). The signal to noise (S/N) was determined by taking the ratio of the highest RLU on the dose response curve to the RLU in the untreated wells.

The next series is described as follows: Solubility in water. The class given is physicochemical.
Series [2] is described as follows: Stability of isolated compound in buffer. Format: physicochemical. To be noted: HCl salt; even under basic buffer (pH>7). Here is the method:
To a solution compound 141 (0.30 g, 0.33 mmol) in acetonitrile (5 mL) was added a solution of HCl in dioxane (4 N, 3 mL). The reaction mixture was stirred at room temperature for 3 hours until Boc was totally removed according to LCMS. The volatiles were removed, and the residue was purified by reversed phase flash chromatography (0-100% acetonitrile in water) to give compound 142 as HCl salt (0.19 g, 73% yield), as a white solid, which was not stable, even under basic buffer (pH>7). ESI m/z: 717.2 (M+H)^+.

For another series, the system named is THP-1. The series is described as follows: Activation of cholesterol efflux (BODIPY-cholesterol) in differentiated THP1 macrophages. Format: cell-based, human. The method, then: The ability of anti-MSR1-LXR agonist ADCs to activate cholesterol efflux in a human macrophage cell line (THP-1; ATTC Catalog #TIB-202) were assessed using a fluorescent cholesterol analog. […] Cells were differentiated into macrophages by treatment with 100 nM Phorbol-12 myristate 13-acetate (Sigma, Catalog #P8139), which was added to the media (described above), for 96 hours. […] Percentage of BODIPY-cholesterol efflux was calculated using the following formula: [fluorescence in acceptor media/(fluorescence in acceptor media+fluorescence in cell lysate)]×100.

Series [3] has as its system T1, LXR. The series is described as follows: THP1/LXR-Luc reporter assay, anti-MSR1 LXR agonist ADCs (Example 17). The class given is cell-based, human. Conditions: differentiated THP-1/LXR-Luc cells, Table 6.
[4] abbreviates: Homo sapiens, THP-1, after 24 hours, read-out: cholesterol efflux EC50.
Setting [5] is: Homo sapiens, differentiated THP-1 macrophages, 24-hour treatment, Table 8, read-out: Cholesterol Efflux activation EC50.

Read-outs that look alike come from different tables or passages of the source.

Data on twelve molecules can be found in US12209180B2, “Bis-octahydrophenanthrene carboxamide derivatives and protein conjugates thereof for use as LXR agonists” (REGENERON PHARMACEUTICALS, INC., priority 2018, dated 2025).

As to `C[C@]1(C(=O)NC(=O)[C@@]2(C)CCC[C@]3(C)c4cc(N)c(O)cc4CC[C@@H]23)CCC[C@]2(C)c3cc(O)ccc3CC[C@@H]12` [P19, (1S,4aS,10aR)-N-[(1S,4aS,10aR)-6-amino-7-hydroxy-1,4a-dimethyl-1,2,3,4,4a,9,10,10a-octahydrophenanthrene-1-carbonyl]-6-hydroxy-1,4a-dimethyl-1,2,3,4,4a,9,10,10a-octahydrophenanthrene-1-carboxamide], in the series with LXR [1], the EC50 came out at 564 pM and the S/N is listed as 11.4.
In “Solubility in water”, `CC(C)[C@H](NC(=O)[C@@H](CCCCNC(=O)COC1CCCCCc2c1nnn2CC1OC2OC3C(CO)OC(OC4C(CO)OC(OC5C(CO)OC(OC6C(CO)OC(OC7C(CO)OC(OC1C(O)C2O)C(O)C7O)C(O)C6O)C(O)C5O)C(O)C4O)C(O)C3O)NC(=O)CCOCCOCCOCCOCCNC(=O)CCC(=O)N1Cc2ccccc2C#Cc2ccccc21)C(=O)N[C@@H](CCCNC(N)=O)C(=O)Nc1ccc2c(c1)[C@@]1(C)CCC[C@](C)(C(=O)NC(=O)[C@@]3(C)CCC[C@]4(C)c5cc(N)ccc5CC[C@@H]34)[C@@H]1CC2` (stereo partly drawn) [LP2] displayed a solubility of under 100 µg/mL.
In the case of `CNCCN(CCOCCO)C(=O)Oc1ccc2c(c1)[C@@]1(C)CCC[C@](C)(C(=O)NC(=O)[C@@]3(C)CCC[C@]4(C)c5cc(N)ccc5CC[C@@H]34)[C@@H]1CC2.Cl.Cl` [compound 142, (4bS,8S,8aR)-8-((1S,4aS,10aR)-6-Amino-1,4a-dimethyl-1,2,3,4,4a,9,10,10a-octahydrophenanthrene-1-carbonylcarbamoyl)-4b,8-dimethyl-4b,5,6,7,8,8a,9,10-octahydrophenanthren-3-yl 2-(2-hydroxyethoxy)ethyl(2-(methylamino)ethyl)carbamate], in series [2], the stability result was “not stable”.
In the series with LXR [1], `C[C@]1(C(=O)NC(=O)[C@@]2(C)CCC[C@]3(C)c4cc(NC(=O)CO)ccc4CC[C@@H]23)CCC[C@]2(C)c3cc(N)ccc3CC[C@@H]12` [P14, (1S,4aS,10aR)-N-[(1S,4aS,10aR)-6-(2-hydroxyacetamido)-1,4a-dimethyl-1,2,3,4,4a,9,10,10a-octahydrophenanthrene-1-carbonyl]-6-amino-1,4a-dimethyl-1,2,3,4,4a,9,10,10a-octahydrophenanthrene-1-carboxamide] displayed an EC50 of 152 pM and a S/N of 10.8.
In the case of `C[C@]1(C(=O)NC(=O)[C@@]2(C)CCC[C@]3(C)c4cc(N)ccc4CC[C@@H]23)CCC[C@]2(C)c3cc(N)ccc3CC[C@@H]12` [P2, (1S,4aS,10aR)-6-Amino-N-((1S,4aS,10aR)-6-amino-1,4a-dimethyl-1,2,3,4,4a,9,10,10a-octahydrophenanthrene-1-carbonyl)-1,4a-dimethyl-1,2,3,4,4a,9,10,10a-octahydrophenanthrene-1-carboxamide], the EC50 in the series with THP-1 (setting [4]) was 14 pM; in the series on THP-1 (setting [5]), 14 pM; with LXR [1] it was 450 pM. In addition, in the series with LXR [1], the S/N is on record as 13.1.
Turning to `C[C@]1(C(=O)NC(=O)[C@@]2(C)CCC[C@]3(C)c4cc(NC(=O)CO)ccc4CC[C@@H]23)CCC[C@]2(C)c3cc(O)ccc3CC[C@@H]12` [P17, (1S,4aS,10aR)-N-[(1S,4aS,10aR)-6-(2-hydroxyacetamido)-1,4a-dimethyl-1,2,3,4,4a,9,10,10a-octahydrophenanthrene-1-carbonyl]-6-hydroxy-1,4a-dimethyl-1,2,3,4,4a,9,10,10a-octahydrophenanthrene-1-carboxamide], in the series with LXR [1], the EC50 was found to be 1030 pM and the S/N is recorded as 12.5.
As for `C[C@]1(C(=O)NC(=O)[C@@]2(C)CCC[C@]3(C)c4cc(O)ccc4CC[C@@H]23)CCC[C@]2(C)c3cc(N)ccc3CC[C@@H]12` [P1, (1S,4aS,10aR)-N-[(1S,4aS,10aR)-6-Amino-1,4a-dimethyl-1,2,3,4,4a,9,10,10a-octahydrophenanthrene-1-carbonyl]-6-hydroxy-1,4a-dimethyl-1,2,3,4,4a,9,10,10a-octahydrophenanthrene-1-carboxamide], the EC50 in the series on THP-1 (setting [4]) came out at 20 pM; with THP-1 (setting [5]), 20 pM; in the series on LXR [1], 191 pM. In addition, the S/N with LXR [1] worked out at 11.9.
With `C[C@H](NC(=O)[C@@H](N)CCC(=O)O)C(=O)Nc1ccc2c(c1)[C@@]1(C)CCC[C@](C)(C(=O)NC(=O)[C@@]3(C)CCC[C@]4(C)c5cc(O)ccc5CC[C@@H]34)[C@@H]1CC2` [P16, (4S)-4-Amino-4-{[(1S)-1-{[(4bS,8S,8aR)-8-({[(1S,4aS,10aR)-6-hydroxy-1,4a-dimethyl-1,2,3,4,4a,9,10,10a-octahydrophenanthren-1-yl]formamido}carbonyl)-4b,8-dimethyl-4b,5,6,7,8,8a,9,10-octahydrophenanthren-3-yl]carbamoyl}ethyl]carbamoyl}butanoic acid], in the series with LXR [1], the midpoint of the response, the EC50, lay at 508 pM and the S/N worked out at 11.5.
Taken in the same sequence, the figures for `CC(C)(C)OC(=O)Nc1ccc2c(c1)[C@@]1(C)CCC[C@](C)(C(=O)NC(=O)[C@@]3(C)CCC[C@]4(C)c5cc(O)ccc5CC[C@@H]34)[C@@H]1CC2` [P15, tert-Butyl N-[(4bS,8S,8aR)-8-({[(1S,4aS,10aR)-6-hydroxy-1,4a-dimethyl-1,2,3,4,4a,9,10,10a-octahydrophenanthren-1-yl]formamido}carbonyl)-4b,8-dimethyl-4b,5,6,7,8,8a,9,10-octahydrophenanthren-3-yl]carbamate] were 72900 pM and 8.8.
In the series with LXR [1], `C[C@]1(C(=O)NC(=O)[C@@]2(C)CCC[C@]3(C)c4cc(NC(=O)COCNC(=O)CN)ccc4CC[C@@H]23)CCC[C@]2(C)c3cc(O)ccc3CC[C@@H]12` [P18, (1S,4aS,10aR)-N-[(1S,4aS,10aR)-6-{2-[(2-aminoacetamido)methoxy]acetamido}-1,4a-dimethyl-1,2,3,4,4a,9,10,10a-octahydrophenanthrene-1-carbonyl]-6-hydroxy-1,4a-dimethyl-1,2,3,4,4a,9,10,10a-octahydrophenanthrene-1-carboxamide] registered an EC50 of 2780 pM and a S/N of 11.5.
Taken in the same sequence, the figures for `C[C@H](N)C(=O)Nc1ccc2c(c1)[C@@]1(C)CCC[C@](C)(C(=O)NC(=O)[C@@]3(C)CCC[C@]4(C)c5cc(N)ccc5CC[C@@H]34)[C@@H]1CC2` [P13, (1S,4aS,10aR)-N-[(1S,4aS,10aR)-6-amino-1,4a-dimethyl-1,2,3,4,4a,9,10,10a-octahydrophenanthrene-1-carbonyl]-6-[(2S)-2-aminopropanamido]-1,4a-dimethyl-1,2,3,4,4a,9,10,10a-octahydrophenanthrene-1-carboxamide] were 78.8 pM and 11.9.

B1: H1H21234N-N297Q-LP1 (conjugate)
VH: QVQLQESGPGLVKPSETLSLTCTVTGGSISRNYWSWIRQPPGKGLEWIGYIYYSGSIDYNPSLKSRVTISVDTSKNQFSLKLSSMTAADTAVYYCARDRWNWKYGMDVWGQGTTVIVSS
VL: EIVLTQSPGTLSLSPGERATLSCRASQTVRNNYLAWYHQKPGQAPRLLIYGASSRATGIPDRFSGSGSGTDFTLTISRLEPEDFTVYYCHQYGNSPWTFGQGTKMEIKR
As for B1, the EC50 with THP-1 (after 24 hours, read-out: cholesterol efflux EC50) amounted to 98 pM; in the series on LXR [3], 738 pM. The same molecule came in with a S/N in the series with LXR [3] of 11.8.

Broadly, the EC50 is the midpoint of the concentration-response curve. In general, solubility refers to the dissolved amount per volume that the medium holds.
